Where “and” joins values, the source holds several entries; their conditions need not be identical. Equal entries are not always repeated. Toxic doses and inconclusive results are not listed. How the source made its calls: active means survival T/C of 150% or more; inactive means T/C below 125% in these data.
Test system: CD2F1 mice, L1210 leukemia ip, survival T/C
Assay: NCI In Vivo Anticancer Drug Screen. Data for tumor model L1210 Leukemia (intraperitoneal) in CD2F1 (CDF1) mice
Details: endpoint: mean survival time, higher = longer survival
How it was run: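 Activity against a transplanted murine tumor was judged by comparing the compound group with a vehicle group. The outcome in the treated animals was divided by that in the controls.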

[1] = dose: 25.0 mg/kg/injection, schedule: Q04DX003 (ip), vehicle: saline with Tween-80
[2] = dose: 50.0 mg/kg/injection, schedule: Q04DX003 (ip), vehicle: saline with Tween-80
[3] = dose: 100.0 mg/kg/injection, schedule: Q01DX001 (ip), vehicle: saline
[4] = dose: 200.0 mg/kg/injection, schedule: Q01DX001 (ip), vehicle: saline
[5] = dose: 400.0 mg/kg/injection, schedule: Q01DX001 (ip), vehicle: saline
[6] = dose: 50.0 mg/kg/injection, schedule: Q01DX001 (ip), vehicle: saline with Tween-80
[7] = dose: 100.0 mg/kg/injection, schedule: Q04DX003 (ip), vehicle: saline with Tween-80
[8] = dose: 200.0 mg/kg/injection, schedule: Q04DX003 (ip), vehicle: saline with Tween-80

Measured: T/C

C[CH2][Sn]([c]1ccccc1)([c]1ccccc1)[c]1ccccc1
inactive: dose: 12.5 mg/kg/injection, schedule: Q04DX003 (ip), vehicle: saline with Tween-80 97 % of control | [1] 100 % of control | [2] 94 % of control

OCC1OC(n2cnc3c(NCCc4ccc(O)c(O)c4)ncnc32)C(O)C1O (stereo unspecified)
inactive: dose: 12.5 mg/kg/injection, schedule: Q01DX005 (ip), vehicle: saline with Tween-80 104 % of control | dose: 25.0 mg/kg/injection, schedule: Q01DX005 (ip), vehicle: saline with Tween-80 109 % of control | dose: 50.0 mg/kg/injection, schedule: Q01DX005 (ip), vehicle: saline with Tween-80 116 % of control

CC1OC(OC(=O)c2ccc([N+](=O)[O-])cc2)CC(NC(=O)C(F)(F)F)C1OC(=O)c1ccc([N+](=O)[O-])cc1 (stereo unspecified)
inactive: dose: 25.0 mg/kg/injection, schedule: Q01DX005 (ip), vehicle: Klucel (hydroxypropylcellulose) (HPC) 94 % of control | dose: 50.0 mg/kg/injection, schedule: Q01DX005 (ip), vehicle: Klucel (hydroxypropylcellulose) (HPC) 89 % of control

Cc1cc(=O)[nH]c(=O)[nH]1
inactive: dose: 50.0 mg/kg/injection, schedule: Q01DX001 (ip), vehicle: Klucel (hydroxypropylcellulose) (HPC) 95 % of control | dose: 50.0 mg/kg/injection, schedule: Q01DX009 (ip), vehicle: Klucel (hydroxypropylcellulose) (HPC) 98 % of control | dose: 100.0 mg/kg/injection, schedule: Q01DX001 (ip), vehicle: Klucel (hydroxypropylcellulose) (HPC) 104 % of control | dose: 100.0 mg/kg/injection, schedule: Q01DX009 (ip), vehicle: Klucel (hydroxypropylcellulose) (HPC) 98 % of control | dose: 200.0 mg/kg/injection, schedule: Q01DX001 (ip), vehicle: Klucel (hydroxypropylcellulose) (HPC) 98 % of control | dose: 200.0 mg/kg/injection, schedule: Q01DX009 (ip), vehicle: Klucel (hydroxypropylcellulose) (HPC) 102 % of control

NC(CS(=O)(=O)O)c1ccccc1 (stereo unspecified)
inactive: [3] 110 % of control | dose: 100.0 mg/kg/injection, schedule: Q04DX003 (ip), vehicle: saline 96 % of control | [4] 110 % of control | dose: 200.0 mg/kg/injection, schedule: Q04DX003 (ip), vehicle: saline 98 % of control | [5] 110 % of control | dose: 400.0 mg/kg/injection, schedule: Q04DX003 (ip), vehicle: saline 97 % of control

CCOC(=O)c1ccc(NC(=O)NC(Cc2ccccc2)c2ccccc2)cc1 (stereo unspecified)
inactive: [1] 111 % of control | [6] 96 % of control | dose: 50.0 mg/kg/injection, schedule: Q01DX009 (ip), vehicle: saline with Tween-80 87 % of control and 91 % of control | [2] 104 % of control | dose: 100.0 mg/kg/injection, schedule: Q01DX001 (ip), vehicle: saline with Tween-80 96 % of control | dose: 100.0 mg/kg/injection, schedule: Q01DX009 (ip), vehicle: saline with Tween-80 87 % of control | dose: 100.0 mg/kg/injection, schedule: Q04DX002 (ip), vehicle: saline with Tween-80 91 % of control | [7] 89 % of control and 106 % of control | dose: 200.0 mg/kg/injection, schedule: Q01DX001 (ip), vehicle: saline with Tween-80 94 % of control | dose: 200.0 mg/kg/injection, schedule: Q01DX009 (ip), vehicle: saline with Tween-80 87 % of control and 90 % of control | dose: 200.0 mg/kg/injection, schedule: Q04DX002 (ip), vehicle: saline with Tween-80 87 % of control and 88 % of control | [8] 101 % of control | dose: 400.0 mg/kg/injection, schedule: Q01DX001 (ip), vehicle: saline with Tween-80 94 % of control | dose: 400.0 mg/kg/injection, schedule: Q04DX002 (ip), vehicle: saline with Tween-80 86 % of control

O=C1OCCC1n1ccc(=O)[nH]c1=O (stereo unspecified)
inactive: dose: 100.0 mg/kg/injection, schedule: Q04DX003 (ip), vehicle: Klucel (hydroxypropylcellulose) (HPC) 102 % of control | dose: 200.0 mg/kg/injection, schedule: Q04DX003 (ip), vehicle: Klucel (hydroxypropylcellulose) (HPC) 96 % of control | dose: 400.0 mg/kg/injection, schedule: Q04DX003 (ip), vehicle: Klucel (hydroxypropylcellulose) (HPC) 102 % of control

CCC(=O)OCC[N+](C)(C)C
inactive: [3] 100 % of control | [4] 96 % of control | [5] 96 % of control

O=C(c1ccc2c(c1)OCO2)c1ccc[nH]1
inactive: [7] 94 % of control | [8] 91 % of control

O=S1(=O)C2CCCCCC2(N2CCOCC2)C1C1CCCCC1 (stereo unspecified)
inactive: [7] 95 % of control | [8] 95 % of control | dose: 400.0 mg/kg/injection, schedule: Q04DX003 (ip), vehicle: saline with Tween-80 97 % of control

Cc1ncc(COP(=O)(O)O)c(C=NC(CCCCN)C(=O)O)c1O.O.[Cu] (stereo unspecified)
inactive: dose: 12.5 mg/kg/injection, schedule: Q01DX001 (ip), vehicle: saline with Tween-80 98 % of control | dose: 25.0 mg/kg/injection, schedule: Q01DX001 (ip), vehicle: saline with Tween-80 92 % of control | [6] 98 % of control

CC(=O)OC1CCC2(C)C(CCC3C2CCC2(C)C(c4cccc(=O)o4)CCC32)C1 (stereo unspecified)
inactive: [3] 101 % of control | [4] 97 % of control | [5] 95 % of control

— PubChem BioAssay AID256 (DTP/NCI, 2004)
